System: patients with fasting triglyceride levels >500 mg/dL
Experiment: MARINE study: 12-week placebo-controlled study of AMR101, metabolic syndrome subset
Assay type: in vivo, human
Settings: 12 weeks, subjects with metabolic syndrome
Protocol: A multi-center, placebo-controlled randomized, double-blind, 12-week study with an open-label extension was performed to evaluate the efficacy and safety of AMR101 in patients with fasting triglyceride levels >500 mg/dL. The primary objective of the study was to determine the efficacy of AMR101 2 g daily and 4 g daily, compared to placebo, in lowering fasting TG levels in patients with fasting TG levels 500 mg/dL and 1500 mg/dL (5.65 mmol/L and 16.94 mmol/L).
The population for this study was men and women (women of childbearing potential will need to be on contraception or practice abstinence) >18 years of age with a body mass index ≤45 kg/m^2 who were not on lipid-altering therapy or were currently on lipid-altering therapy. Patients currently on statin therapy (with or without ezetimibe) were evaluated by the investigator as to whether this therapy can be safely discontinued at screening, or if it should be continued. If statin therapy (with or without ezetimibe) was to be continued, dose(s) must have been stable […] prior to randomization. Patients taking non-statin, lipid-altering medications (niacin >200 mg/day, fibrates, fish oil, other products containing omega-3 fatty acids, or other herbal products or dietary supplements with potential lipid-altering effects), either alone or in combination with statin therapy (with or without ezetimibe), must have been able to safely discontinue non-statin, lipid-altering therapy at screening.
Approximately 240 patients were randomized at approximately 50 centers in North America, South America, Central America, Europe, India, and South Africa. The study was a 58- to 60-week, Phase 3, multi-center study consisting of 3 study periods: (1) A 6- to 8-week screening period that included a diet and lifestyle stabilization and washout period and a TG qualifying period; (2) A 12-week, double-blind, randomized, placebo-controlled treatment period; and (3) A 40-week, open-label, extension period.
After confirmation of qualifying fasting TG values, eligible patients entered a 12-week, randomized, double-blind treatment period. At Visit 4 (Week 0), patients were randomly assigned to 1 of the following treatment groups: • AMR101 2 g daily, • AMR101 4 g daily, or • Placebo.
Eligible patients were randomly assigned at Visit 4 (Week 0) to receive orally AMR101 2 g daily, AMR101 4 g daily, or placebo for the 12-week double-blind treatment period. AMR101 was provided in 1 g liquid-filled, oblong, gelatin capsules. The matching placebo capsule was filled with light liquid paraffin and contained 0 g of AMR101. During the double-blind treatment period, patients took 2 capsules (AMR101 or matching placebo) in the morning and 2 in the evening for a total of 4 capsules per day. Patients in the AMR101 2 g/day treatment group received 1 AMR101 1 g capsule and 1 matching placebo capsule in the morning and in the evening. Patients in the AMR101 4 g/day treatment group received 2 AMR101 1 g capsules in the morning and evening.
The primary efficacy variable for the double-blind treatment period was percent change in TG from baseline to Week 12 endpoint. […]

SMILES: CC/C=C\C/C=C\C/C=C\C/C=C\C/C=C\CCCC(=O)OCC [AMR101, ethyl eicosapentaenoate]
- Apo B, Change from Baseline, % (2 g/day, No statins): 2.8%
- Apo B, End of Treatment, median (IQR) (2 g/day, No statins): 121 mg/dL
- Apo B, Median % Change From Baseline vs Placebo (2 g/day, No statins): −1.8%
- HDL-C, Change from Baseline, % (2 g/day, No statins): 0.0%
- HDL-C, End of Treatment, median (IQR) (2 g/day, No statins): 26 mg/dL
- HDL-C, Median % Change From Baseline vs Placebo (2 g/day, No statins): 0.3%
- LDL-C, Change from Baseline, % (2 g/day, No statins): 1.9%
- LDL-C, End of Treatment, median (IQR) (2 g/day, No statins): 95 mg/dL
- LDL-C, Median % Change From Baseline vs Placebo (2 g/day, No statins): 2.8%
- Non-HDL-C, Change from Baseline, % (2 g/day, No statins): −1.1%
- Non-HDL-C, End of Treatment, median (IQR) (2 g/day, No statins): 218 mg/dL
- Non-HDL-C, Median % Change From Baseline vs Placebo (2 g/day, No statins): −7.8%
- TG, Change from Baseline, % (2 g/day, No statins): −10.1%
- TG, End of Treatment, median (IQR) (2 g/day, No statins): 586 mg/dL
- TG, Median % Change From Baseline vs Placebo (2 g/day, No statins): −17.2%
- hsCRP, Change from Baseline, % (2 g/day, No statins): 38.0%
- hsCRP, End of Treatment, median (IQR) (2 g/day, No statins): 2.5 (3.10) mg/L
- hsCRP, Median % Change From Baseline vs Placebo (2 g/day, No statins): −7.1%
- Apo B, Change from Baseline, % (2 g/day, Statins): −0.9%
- Apo B, End of Treatment, median (IQR) (2 g/day, Statins): 105 mg/dL
- Apo B, Median % Change From Baseline vs Placebo (2 g/day, Statins): −9.1%
- HDL-C, Change from Baseline, % (2 g/day, Statins): 0.0%
- HDL-C, End of Treatment, median (IQR) (2 g/day, Statins): 30 mg/dL
- HDL-C, Median % Change From Baseline vs Placebo (2 g/day, Statins): 4.2%
- LDL-C, Change from Baseline, % (2 g/day, Statins): −3.8%
- LDL-C, End of Treatment, median (IQR) (2 g/day, Statins): 77.5 mg/dL
- LDL-C, Median % Change From Baseline vs Placebo (2 g/day, Statins): 6.2%
- Non-HDL-C, Change from Baseline, % (2 g/day, Statins): 10.1%
- Non-HDL-C, End of Treatment, median (IQR) (2 g/day, Statins): 206 mg/dL
- Non-HDL-C, Median % Change From Baseline vs Placebo (2 g/day, Statins): −10.9%
- TG, Change from Baseline, % (2 g/day, Statins): 14.5%
- TG, End of Treatment, median (IQR) (2 g/day, Statins): 708 mg/dL
- TG, Median % Change From Baseline vs Placebo (2 g/day, Statins): −33.0%
- hsCRP, Change from Baseline, % (2 g/day, Statins): 14.3%
- hsCRP, End of Treatment, median (IQR) (2 g/day, Statins): 1.6 (2.20) mg/L
- hsCRP, Median % Change From Baseline vs Placebo (2 g/day, Statins): −36.6%
- Apo B, Change from Baseline, % (2 g/day, Total): 2.5%
- Apo B, End of Treatment, median (IQR) (2 g/day, Total): 117 mg/dL
- Apo B, Median % Change From Baseline vs Placebo (2 g/day, Total): −3.3%
- HDL-C, Change from Baseline, % (2 g/day, Total): 0.0%
- HDL-C, End of Treatment, median (IQR) (2 g/day, Total): 28 mg/dL
- HDL-C, Median % Change From Baseline vs Placebo (2 g/day, Total): 0.9%
- LDL-C, Change from Baseline, % (2 g/day, Total): −2.5%
- LDL-C, End of Treatment, median (IQR) (2 g/day, Total): 94 mg/dL
- LDL-C, Median % Change From Baseline vs Placebo (2 g/day, Total): 3.6%
- Non-HDL-C, Change from Baseline, % (2 g/day, Total): 0.0%
- Non-HDL-C, End of Treatment, median (IQR) (2 g/day, Total): 214 mg/dL
- Non-HDL-C, Median % Change From Baseline vs Placebo (2 g/day, Total): −8.3%
- TG, Change from Baseline, % (2 g/day, Total): −4.3%
- TG, End of Treatment, median (IQR) (2 g/day, Total): 606 mg/dL
- TG, Median % Change From Baseline vs Placebo (2 g/day, Total): −19.1%
- hsCRP, Change from Baseline, % (2 g/day, Total): 25.1%
- hsCRP, End of Treatment, median (IQR) (2 g/day, Total): 2.4 (3.20) mg/L
- hsCRP, Median % Change From Baseline vs Placebo (2 g/day, Total): −14.5%
- Apo B, Change from Baseline, % (4 g/day, No statins): −4.3%
- Apo B, End of Treatment, median (IQR) (4 g/day, No statins): 123 mg/dL
- Apo B, Median % Change From Baseline vs Placebo (4 g/day, No statins): −9.2%
- HDL-C, Change from Baseline, % (4 g/day, No statins): 0.0%
- HDL-C, End of Treatment, median (IQR) (4 g/day, No statins): 25 mg/dL
- HDL-C, Median % Change From Baseline vs Placebo (4 g/day, No statins): −4.2%
- LDL-C, Change from Baseline, % (4 g/day, No statins): −1.5%
- LDL-C, End of Treatment, median (IQR) (4 g/day, No statins): 92 mg/dL
- LDL-C, Median % Change From Baseline vs Placebo (4 g/day, No statins): −2.0%
- Non-HDL-C, Change from Baseline, % (4 g/day, No statins): −9.9%
- Non-HDL-C, End of Treatment, median (IQR) (4 g/day, No statins): 220 mg/dL
- Non-HDL-C, Median % Change From Baseline vs Placebo (4 g/day, No statins): −18.5%
- TG, Change from Baseline, % (4 g/day, No statins): −26.6%
- TG, End of Treatment, median (IQR) (4 g/day, No statins): 582 mg/dL
- TG, Median % Change From Baseline vs Placebo (4 g/day, No statins): −28.5%
- hsCRP, Change from Baseline, % (4 g/day, No statins): 0.0%
- hsCRP, End of Treatment, median (IQR) (4 g/day, No statins): 2.3 (2.30) mg/L
- hsCRP, Median % Change From Baseline vs Placebo (4 g/day, No statins): −78.0%
- hsCRP, Median % Change From Baseline vs Placebo (4 g/day, No statins, listed as IPE): −27.6%
- Apo B, Change from Baseline, % (4 g/day, Statins): −1.6%
- Apo B, End of Treatment, median (IQR) (4 g/day, Statins): 100 mg/dL
- Apo B, Median % Change From Baseline vs Placebo (4 g/day, Statins): −9.0%
- HDL-C, Change from Baseline, % (4 g/day, Statins): −5.2%
- HDL-C, End of Treatment, median (IQR) (4 g/day, Statins): 29 mg/dL
- HDL-C, Median % Change From Baseline vs Placebo (4 g/day, Statins): 0.3%
- LDL-C, Change from Baseline, % (4 g/day, Statins): −11.4%
- LDL-C, End of Treatment, median (IQR) (4 g/day, Statins): 72.5 mg/dL
- LDL-C, Median % Change From Baseline vs Placebo (4 g/day, Statins): −4.3%
- Non-HDL-C, Change from Baseline, % (4 g/day, Statins): −7.6%
- Non-HDL-C, End of Treatment, median (IQR) (4 g/day, Statins): 172 mg/dL
- Non-HDL-C, Median % Change From Baseline vs Placebo (4 g/day, Statins): −27.4%
- TG, Change from Baseline, % (4 g/day, Statins): −29.1%
- TG, End of Treatment, median (IQR) (4 g/day, Statins): 457 mg/dL
- TG, Median % Change From Baseline vs Placebo (4 g/day, Statins): −62.6%
- hsCRP, Change from Baseline, % (4 g/day, Statins): −35.1%
- hsCRP, End of Treatment, median (IQR) (4 g/day, Statins): 2.7 (3.70) mg/L
- hsCRP, Median % Change From Baseline vs Placebo (4 g/day, Statins): −27.6%
- hsCRP, Median % Change From Baseline vs Placebo (4 g/day, Statins, listed as IPE): −78.0%
- Apo B, Change from Baseline, % (4 g/day, Total): −3.5%
- Apo B, End of Treatment, median (IQR) (4 g/day, Total): 120 mg/dL
- HDL-C, Change from Baseline, % (4 g/day, Total): 0.0%
- HDL-C, End of Treatment, median (IQR) (4 g/day, Total): 26 mg/dL
- HDL-C, Median % Change From Baseline vs Placebo (4 g/day, Total): −3.0%
- LDL-C, Change from Baseline, % (4 g/day, Total): −4.1%
- LDL-C, End of Treatment, median (IQR) (4 g/day, Total): 89 mg/dL
- Non-HDL-C, Change from Baseline, % (4 g/day, Total): −9.6%
- Non-HDL-C, End of Treatment, median (IQR) (4 g/day, Total): 207 mg/dL
- TG, Change from Baseline, % (4 g/day, Total): −26.8%
- TG, End of Treatment, median (IQR) (4 g/day, Total): 504 mg/dL
- hsCRP, Change from Baseline, % (4 g/day, Total): −2.9%
- hsCRP, End of Treatment, median (IQR) (4 g/day, Total): 2.4 (2.95) mg/L
- Apo B, Median % Change From Baseline vs Placebo (4 g/day, Total, listed as IPE): −9.1%
- LDL-C, Median % Change From Baseline vs Placebo (4 g/day, Total, listed as IPE): −3.2%
- Non-HDL-C, Median % Change From Baseline vs Placebo (4 g/day, Total, listed as IPE): −19.9%
- TG, Median % Change From Baseline vs Placebo (4 g/day, Total, listed as IPE): −35.0%
- hsCRP, Median % Change From Baseline vs Placebo (4 g/day, Total, listed as IPE): −40.0%
